Test results as given in patent US11661426B2, “Imidazole-containing inhibitors of ALK2 kinase” (BioCryst Pharmaceuticals, Inc., priority 2017, dated 2023).
pIC50: −log10 of the molar value.

Molecular target: ALK2 (Homo sapiens (Human), UniProt Q04771)
Test: ALK2 inhibition, LanthaScreen Eu Kinase Binding Assay (ThermoFisher Scientific / Life Technologies)
Conditions: read-out: Measured Ki (IC50) Value for Compounds: IC50
Method: Biochemical assays to measure the inhibitory effects of the compounds were performed by ThermoFisher Scientific (Life Technologies). ALK2 inhibition was tested using LanthaScreen™ Eu Kinase Binding Assay screening protocol.

ALK2, sequence (Q04771 21-509): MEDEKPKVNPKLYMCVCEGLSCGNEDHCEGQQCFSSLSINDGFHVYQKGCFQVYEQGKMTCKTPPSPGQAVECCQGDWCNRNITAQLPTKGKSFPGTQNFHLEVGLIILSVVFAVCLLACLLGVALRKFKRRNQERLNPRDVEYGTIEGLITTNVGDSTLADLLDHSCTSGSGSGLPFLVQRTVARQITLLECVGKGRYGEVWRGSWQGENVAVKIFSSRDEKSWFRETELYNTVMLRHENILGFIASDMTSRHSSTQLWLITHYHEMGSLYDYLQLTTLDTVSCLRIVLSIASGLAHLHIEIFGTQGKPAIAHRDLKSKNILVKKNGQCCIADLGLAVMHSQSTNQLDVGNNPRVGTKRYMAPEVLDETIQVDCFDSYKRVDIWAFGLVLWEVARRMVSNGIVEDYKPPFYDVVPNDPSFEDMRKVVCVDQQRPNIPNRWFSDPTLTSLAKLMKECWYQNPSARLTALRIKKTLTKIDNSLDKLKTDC

Row | Structure (SMILES) | pIC50
1 | c1ccc([C@@H]2CCCN2c2nc(Nc3cn(C4CCCCC4)cn3)c3cccn3n2)cc1 [Compound 46a, (S)—N-(1-cyclohexyl-1H-imidazol-4-yl)-2-(2-phenylpyrrolidin-1-yl)pyrrolo[2,1-f][1,2,4]triazin-4-amine] | 6.00 to 7.00
2 | COc1cc(-n2cnc(Nc3nc(N4CCC[C@H]4C(N)=O)nc4sccc34)c2)cc(OC)c1OC [Compound 155a, (S)-1-(4-((1-(3,4,5-trimethoxyphenyl)-1H-imidazol-4-yl)amino)thieno[2,3-d]pyrimidin-2-yl)pyrrolidine-2-carboxamide] | > 7.00
3 | c1ccc(C2CCCN2c2nc(Nc3cn(C4CC4)cn3)c3cccn3n2)nc1 (centres unmarked) [Compound 27a, N-(1-cyclopropyl-1H-imidazol-4-yl)-2-(2-(pyridin-2-yl)pyrrolidin-1-yl)pyrrolo[2,1-f][1,2,4]triazin-4-amine] | 6.00 to 7.00
4 | NC(=O)[C@@H]1CCCN1c1nc(Nc2cn(-c3ccc4c(c3)OC(F)(F)O4)cn2)c2ccsc2n1 [Compound 431e, (S)-1-(4-((1-(2,2-difluorobenzo[d][1,3]dioxol-5-yl)-1H-imidazol-4-yl)amino)thieno[2,3-d]pyrimidin-2-yl)pyrrolidine-2-carboxamide] | < 6.00
5 | COc1cc(-n2cnc(Nc3nc4c(c(N5CCC[C@H]5CO)n3)CNC4)c2)cc(OC)c1OC [Compound 359d, (S)-(1-(2-(1-(3,4,5-trimethoxyphenyl)-1H-imidazol-4-ylamino)-6,7-dihydro-5H-pyrrolo[3,4-d]pyrimidin-4-yl)pyrrolidin-2-yl)methanol] | > 7.00
6 | COc1cc(-n2cnc(Nc3nc(N4CCC[C@H]4C(N)=O)nc4ncn(C)c34)c2)cc(OC)c1OC [Compound 390b, (S)-1-(7-methyl-6-((1-(3,4,5-trimethoxyphenyl)-1H-imidazol-4-yl)amino)-7H-purin-2-yl)pyrrolidine-2-carboxamide] | < 6.00
7 | Cn1cnc(Nc2nc(N3CCN(C(=O)Cc4ccccc4)CC3)nn3cccc23)c1 [Compound 53b, 1-(4-(4-((1-methyl-1H-imidazol-4-yl)amino)pyrrolo[2,1-f][1,2,4]triazin-2-yl)piperazin-1-yl)-2-phenylethanone] | 6.00 to 7.00
8 | COc1cc(-n2cnc(Nc3nc4c(c(N5CCC[C@@H]5CO)n3)CNC4)c2)cc(OC)c1OC [Compound 366c, (R)-(1-(2-(1-(3,4,5-trimethoxyphenyl)-1H-imidazol-4-ylamino)-6,7-dihydro-5H-pyrrolo[3,4-d]pyrimidin-4-yl)pyrrolidin-2-yl)methanol] | > 7.00
9 | Cc1cc2nc(N3CCC[C@H]3CO)nc(Nc3cn(-c4ccc(F)cc4)cn3)c2s1 [Compound 42b, (S)-(1-(4-((1-(4-fluorophenyl)-1H-imidazol-4-yl)amino)-6-methylthieno[3,2-d]pyrimidin-2-yl)pyrrolidin-2-yl)methanol] | > 7.00
10 | COc1cc(-n2cnc(Nc3nc(N4CCC[C@H]4CO)nc4c3c(C)nn4C)c2)cc(OC)c1OC [Compound 374a, (S)-(1-(1,3-dimethyl-4-((1-(3,4,5-trimethoxyphenyl)-1H-imidazol-4-yl)amino)-1H-pyrazolo[3,4-d]pyrimidin-6-yl)pyrrolidin-2-yl)methanol] | 6.00 to 7.00
11 | COc1cc(-n2cnc(Nc3nc(N4CCC[C@H]4CO)nc4ccsc34)c2)cc(OC)c1OC [Compound 75b, (S)-(1-(4-((1-(3,4,5-trimethoxyphenyl)-1H-imidazol-4-yl)amino)thieno[3,2-d]pyrimidin-2-yl)pyrrolidin-2-yl)methanol] | > 7.00
12 | COc1cc(-n2cnc(Nc3nc(-c4ccccc4C(N)=O)nn4cccc34)c2)cc(OC)c1OC [Compound 135a, 2-(4-((1-(3,4,5-trimethoxyphenyl)-1H-imidazol-4-yl)amino)pyrrolo[2,1-f][1,2,4]triazin-2-yl)benzamide] | > 7.00
13 | Cn1cnc(Nc2nc(Cl)nn3cccc23)c1 [Compound 4b, 2-chloro-N-(1-methyl-1H-imidazol-4-yl)pyrrolo[2,1-f][1,2,4]triazin-4-amine] | < 6.00
14 | OC[C@@H]1CCCN1c1nc(Nc2cn(-c3ccc4[nH]ccc4c3)cn2)c2cccn2n1 [Compound 67c, (S)-(1-(4-((1-(1H-indol-5-yl)-1H-imidazol-4-yl)amino)pyrrolo[2,1-f][1,2,4]triazin-2-yl)pyrrolidin-2-yl)methanol] | > 7.00
15 | COc1ccc(-c2csc3c(Nc4cn(-c5ccccc5)cn4)nc(N4CCC[C@H]4CO)nc23)cc1 [Compound 89a, (S)-(1-(7-(4-methoxyphenyl)-4-(1-phenyl-1H-imidazol-4-ylamino)thieno[3,2-d]pyrimidin-2-yl)pyrrolidin-2-yl)methanol] | 6.00 to 7.00
16 | OC[C@@H]1CCCN1c1nc(Nc2cn(-c3ccnc4c(F)cccc34)cn2)c2cccn2n1 [Compound 441e, (S)-(1-(4-((1-(8-fluoroquinolin-4-yl)-1H-imidazol-4-yl)amino)pyrrolo[2,1-f][1,2,4]triazin-2-yl)pyrrolidin-2-yl)methanol] | > 7.00

Row | Structure (SMILES) | pIC50
17 | COC(=O)c1cc(-n2cnc(Nc3nc(N4CCC[C@H]4C(N)=O)nn4cccc34)c2)cc(OC)c1OC [Compound 350d, (S)-methyl 5-(4-((2-(2-carbamoylpyrrolidin-1-yl)pyrrolo[2,1-f][1,2,4]triazin-4-yl)amino)-1H-imidazol-1-yl)-2,3-dimethoxybenzoate] | > 7.00
18 | CC(=O)c1ccc(-n2cnc(Nc3nc(N4CCC[C@H]4CO)nn4cccc34)c2)cc1 [Compound 95c, (S)-1-(4-(4-(2-(2-(hydroxymethyl)pyrrolidin-1-yl)pyrrolo[1,2-f][1,2,4]triazin-4-ylamino)-1H-imidazol-1-yl)phenyl)ethanone] | > 7.00
19 | COc1cc(-n2cnc(Nc3nc(N4CCC[C@@H]4CO)nn4c(CN5CCCCC5)ccc34)c2)cc(OC)c1OC [Compound 348a, (R)-(1-(7-(piperidin-1-ylmethyl)-4-((1-(3,4,5-trimethoxyphenyl)-1H-imidazol-4-yl)amino)pyrrolo[2,1-f][1,2,4]triazin-2-yl)pyrrolidin-2-yl)methanol] | > 7.00
20 | COc1cc(-n2cnc(Nc3nc(N4CCC[C@H]4CO)c4ccccc4n3)c2)cc(OC)c1OC [Compound 115b, (S)-(1-(2-((1-(3,4,5-trimethoxyphenyl)-1H-imidazol-4-yl)amino)quinazolin-4-yl)pyrrolidin-2-yl)methanol] | > 7.00
21 | Cn1cnc(Nc2nc(N3CCCC3c3ccccn3)nn3cccc23)c1 (centres unmarked) [Compound 4c, N-(1-methyl-1H-imidazol-4-yl)-2-(2-(pyridin-2-yl)pyrrolidin-1-yl)pyrrolo[1,2-f][1,2,4]triazin-4-amine] | > 7.00
22 | COc1ccc(-n2cnc(Nc3nc(N4CCC[C@H]4CO)c4cccn4n3)c2)cc1OC [Compound 243a, (S)-(1-(2-((1-(3,4-dimethoxyphenyl)-1H-imidazol-4-yl)amino)pyrrolo[2,1-f][1,2,4]triazin-4-yl)pyrrolidin-2-yl)methanol] | 6.00 to 7.00
23 | COc1cc(-n2cnc(Nc3nc(N4CCC[C@@H]4C(N)=O)nc4cc(C(F)(F)F)ccc34)c2)cc(OC)c1OC [Compound 287a, (R)-1-(7-(trifluoromethyl)-4-((1-(3,4,5-trimethoxyphenyl)-1H-imidazol-4-yl)amino)quinazolin-2-yl)pyrrolidine-2-carboxamide] | > 7.00
24 | COc1cc(-n2cnc(Nc3nc(N4[C@H](CO)C[C@H]5C[C@H]54)c4cccn4n3)c2)cc(OC)c1OC [Compound 325e, ((1R,3S,5R)-2-(2-((1-(3,4,5-trimethoxyphenyl)-1H-imidazol-4-yl)amino)pyrrolo[2,1-f][1,2,4]triazin-4-yl)-2-azabicyclo[3.1.0]hexan-3-yl)methanol] | > 7.00
25 | OC[C@@H]1CCCN1c1nc(Nc2cn(-c3ccccc3F)cn2)c2cccn2n1 [Compound 36c, (S)-(1-(4-((1-(2-fluorophenyl)-1H-imidazol-4-yl)amino)pyrrolo[2,1-f][1,2,4]triazin-2-yl)pyrrolidin-2-yl)methanol] | > 7.00
26 | OC[C@@H]1CCCN1c1nc(Nc2cn(-c3cccc(OC(F)(F)F)c3)cn2)c2cccn2n1 [Compound 330b, (S)-(1-(4-((1-(3-(trifluoromethoxy)phenyl)-1H-imidazol-4-yl)amino)pyrrolo[2,1-f][1,2,4]triazin-2-yl)pyrrolidin-2-yl)methanol] | > 7.00
27 | COc1cc(-n2cnc(Nc3nc(N4CCC[C@H]4CO)nc4sc(CN5CCCC5)cc34)c2)cc(OC)c1OC [Compound 384b, (S)-(1-(6-(pyrrolidin-1-ylmethyl)-4-((1-(3,4,5-trimethoxyphenyl)-1H-imidazol-4-yl)amino)thieno[2,3-d]pyrimidin-2-yl)pyrrolidin-2-yl)methanol] | > 7.00
28 | COc1cc(-n2cnc(Nc3nc(N4CCC[C@H]4C(N)=O)nc4c3COC4)c2)cc(OC)c1OC [Compound 311a, (S)-1-(4-((1-(3,4,5-trimethoxyphenyl)-1H-imidazol-4-yl)amino)-5,7-dihydrofuro[3,4-d]pyrimidin-2-yl)pyrrolidine-2-carboxamide] | > 7.00
29 | Cn1cnc(Nc2nc(N3CCC[C@H]3c3ccccn3)nn3cccc23)c1 [Compound 18a, (S)—N-(1-methyl-1H-imidazol-4-yl)-2-(2-(pyridin-2-yl)pyrrolidin-1-yl)pyrrolo[2,1-f][1,2,4]triazin-4-amine] | > 7.00
30 | COc1cc(-n2cnc(Nc3nc(N4CCCC4)nc4ncccc34)c2)cc(OC)c1OC [Compound 186a, 2-(pyrrolidin-1-yl)-N-(1-(3,4,5-trimethoxyphenyl)-1H-imidazol-4-yl)pyrido[2,3-d]pyrimidin-4-amine] | > 7.00
31 | COc1cc(-n2cnc(Nc3nc(N4CCC[C@H]4CO)c4c(C)nn(C5CC(F)(F)C5)c4n3)c2)cc(OC)c1OC [Compound 459c, (S)-(1-(1-(3,3-difluorocyclobutyl)-3-methyl-6-((1-(3,4,5-trimethoxyphenyl)-1H-imidazol-4-yl)amino)-1H-pyrazolo[3,4-d]pyrimidin-4-yl)pyrrolidin-2-yl)methanol] | > 7.00
32 | COc1cc(-n2cnc(Nc3nc(N4CCC[C@@H]4CO)c4sccc4n3)c2)cc(OC)c1OC [Compound 310b, (R)-(1-(2-((1-(3,4,5-trimethoxyphenyl)-1H-imidazol-4-yl)amino)thieno[3,2-d]pyrimidin-4-yl)pyrrolidin-2-yl)methanol] | > 7.00
